Format in all cases: cell-based
Data set [1] has as its system COX enzymes (D122 mouse Lewis lung carcinoma cells). Description: COX inhibition, PGE2 production in D122 cells. The following applies: average of two experiments in triplicate. The source says: In addition, the aromatic rings of the diphenylamine moiety were substituted with different electron donating or withdrawing groups. In a first screen, two parameters were checked: (a) the non-selective inhibition of COX-1/COX-2 enzyme activities, measured by the production of PGE2 in cultured mouse colon adenocarcinoma (CT26) and mouse Lewis lung carcinoma cells (D122) cells; (b) the M-channel activity, measured by the heterologous coexpression of Kv7.2 and Kv7.3 subunits in Chinese hamster ovary (CHO) cells.
Mouse colon adenocarcinoma CT26 and mouse Lewis lung carcinoma D122 cells were grown in DMEM (D122) or RPMI (CT26) supplemented with 10% fetal calf serum, 4% glutamine, 1% penicillin-streptomycin-nystatin and 3% non essential amino acids (D122) and maintained in a humidified 37°C incubator with 5% CO2. For the COX assays, cells were grown onto 24 multiwell plates. Before the assay, cells were washed with serum-free medium; then tested compounds were added to the medium and incubated for 30 min at 37°C after which 30 µM arachidonic acid was added and incubated for additional 20 min. At the end of the incubations, 10 µM indomethacin was added to stop the reaction and medium was transferred to another 24 multiwell plate for measuring PGE2 production by radioimmunoassay (DuPont-NEN; Boston, MA) according to manufacturer protocol. Protein determination was assayed on scraped cells and was used to normalize the amount of PGE2 production. Assays with purified ovine COX-1 and human recombinant COX-2 were performed using the COX inhibitor screening assay (Cayman chemical company, Ann Arbor, MI), according to manufacturer protocol.

Data set [2] has as its target T1, Kv7.2/3 K+ channels (M-channels) (Homo sapiens, UniProt O43525+O43526).
T1 construct: expressed in transfected cells; host or cells: CHO cells
Description: Whole-cell patch-clamp of recombinant Kv7.2/3 channels in CHO cells. The following applies: for V50 of Kv7.2/3 activation: n = 5; for fold increase in Kv7.2/3 current amplitude: step −90 to −50 mV. Here is the method:
Chinese hamster ovary (CHO) cells were grown in Dulbecco's modified Eagle's medium (DMEM) supplemented with 2 mM glutamine, 10% fetal calf serum and antibiotics. Briefly, 40,000 cells seeded on poly-D-lysine-coated glass coverslips (13 mm diameter) in a 24-multiwell plate were transfected with pIRES-CD8 (0.5 µg) as a marker for transfection, and with Kv7.2 (0.5 µg) and Kv7.3 (0.5 µg). For electrophysiology, transfected cells were visualized approximately 40 hours following transfection, using anti-CD8 antibody-coated beads. Transfection was performed using Fugene 6 (Roche, Indianapolis IN, USA) according to the manufacturer's protocol.
Voltage-clamp recordings in CHO cells were performed, using the whole-cell configuration of the patch-clamp technique. Signals were amplified using an Axopatch 200B patch-clamp amplifier (Molecular Devices, Sunnyvale, CA), sampled at 2 kHz and filtered at 800 Hz via a 4-pole Bessel low pass filter. […] The patch pipettes were pulled from borosilicate glass (Warner Instrument Corp, USA) with a resistance of 2–5 MΩ. For K^+ current recordings in CHO cells, the intracellular pipette solution contained (in mM): 130 KCl, 1 MgCl2, 5 K2ATP, 5 EGTA, 10 HEPES, adjusted with KOH to pH 7.4 (290 mOsm). The extracellular solution contained (in mM): 140 NaCl, 4 KCl, 1.8 CaCl2, 1.2 MgCl2, 11 glucose, 5.5 HEPES, adjusted with NaOH to pH 7.4 (310 mOsm). Series resistances (3–13 MΩ) were compensated (75–90%) and periodically monitored.
Data analysis was performed using the Clampfit program (pClamp 9.2, Molecular Devices), Microsoft Excel (Microsoft) and Prism 4.0 (GraphPad). Chord conductance (G) was calculated by using the following equation: [drawing 1] where I corresponds to the current amplitude measured at the end of the pulse and Vrev, the calculated reversal potential. G was estimated at various test voltages V and then, normalized to a maximal conductance value, Gmax. Activation curves were fitted by one Boltzmann distribution: [drawing 2] where V50 is the voltage at which the current is half-activated and s is the slope factor. All data were expressed as mean±SEM. Statistically significant differences were assessed by Student's t-test. Analysis of sEPSCs and sIPSCs was done using the Clampfit program (pClamp 9.2, Molecular Devices) and included evaluation of the individual events as well as the average event amplitude and the integral of the event (total charge transfer).

Another data set deals with rat DRG neurons. As to the kind of experiment: Current-clamp recording of cultured DRG neurons. The following applies: 25 µM. Here is the method: For dorsal root ganglion (DRG) neuronal cultures, ganglia were dissected from 2–5 day-old Sprague-Dawley rats killed by decapitation. DRGs were placed in Hank's balanced saline solution (HBSS) and prepared by enzymatic dissociation. Briefly, after 30 min incubation in 5 mg/ml dispase, 2 mg/ml collagenase type 1A and 0.1 mg/ml DNase (Invitrogen/Gibco, Carlsbad, CA) in Ca^2+ and Mg^2+-free HBSS, the ganglia were mechanically triturated with a fire-polished glass Pasteur pipette. The ganglia were then centrifuged for 5 min at 80xg and resuspended in DMEM supplemented with 2 mM L-glutamine, 16.5 mM NaHCO3, 6 g/l glucose, 5 ml penicillin/streptomycin and 10% fetal calf serum. For electrophysiological recording, dissociated neurons were plated on 13 mm glass coverslips, previously coated with poly-D-lysine (1 mg/ml) and laminin (10 µg/ml) and used at 1–2 days in culture.
For current-clamp recordings in primary cultured neurons, the patch pipettes were filled with (in mM): 135 KCl, 1 K2ATP, 1 MgATP, 2 EGTA, 1.1 CaCl2, 5 glucose, 10 HEPES, adjusted with KOH at pH 7.4 (315 mOsm). The external solution contained (in mM): 150 NaCl, 2.5 KCl, 2 CaCl2, 2 MgCl2, 15 glucose, 10 HEPES, adjusted with NaOH at pH 7.4 (325 mOsm). Recordings were sampled at 5 kHz and filtered at 2 KHz via a 4-pole Bessel low pass filter. A liquid junction potential of about −15.6 mV was measured between the intracellular and saline solutions and corrected on-line. For evoking spike discharges, 75–200 pA square depolarizing current pulses were injected into neurons for 400 ms. For rheobase current measurements, 100–1100 pA square depolarizing current pulses were injected into neurons for 2 ms.

T1 sequence (O43526 whole entry): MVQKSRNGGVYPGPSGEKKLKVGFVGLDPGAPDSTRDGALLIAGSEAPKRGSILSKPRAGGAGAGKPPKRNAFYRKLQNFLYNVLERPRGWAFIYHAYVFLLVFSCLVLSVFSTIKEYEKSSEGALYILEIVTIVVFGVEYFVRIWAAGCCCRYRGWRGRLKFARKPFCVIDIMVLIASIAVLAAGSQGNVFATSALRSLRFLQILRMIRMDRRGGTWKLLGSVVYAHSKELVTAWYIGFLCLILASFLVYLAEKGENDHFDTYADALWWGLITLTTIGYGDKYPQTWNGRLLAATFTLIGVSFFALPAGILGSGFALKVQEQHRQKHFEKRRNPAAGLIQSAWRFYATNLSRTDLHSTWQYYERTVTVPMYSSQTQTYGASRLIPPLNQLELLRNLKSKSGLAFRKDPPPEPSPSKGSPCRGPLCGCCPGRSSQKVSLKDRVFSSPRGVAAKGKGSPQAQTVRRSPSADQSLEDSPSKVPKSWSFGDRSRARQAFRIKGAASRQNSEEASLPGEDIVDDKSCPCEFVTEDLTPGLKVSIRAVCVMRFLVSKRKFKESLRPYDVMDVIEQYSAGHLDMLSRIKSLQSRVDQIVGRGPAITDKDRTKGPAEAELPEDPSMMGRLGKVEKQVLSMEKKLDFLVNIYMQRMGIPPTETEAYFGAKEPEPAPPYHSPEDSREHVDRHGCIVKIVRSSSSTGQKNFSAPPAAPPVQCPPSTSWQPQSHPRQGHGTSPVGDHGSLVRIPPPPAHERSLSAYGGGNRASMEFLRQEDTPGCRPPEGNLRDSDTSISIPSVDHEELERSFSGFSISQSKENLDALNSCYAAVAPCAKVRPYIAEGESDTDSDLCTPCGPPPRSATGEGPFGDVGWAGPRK
T1 sequence (O43525 whole entry): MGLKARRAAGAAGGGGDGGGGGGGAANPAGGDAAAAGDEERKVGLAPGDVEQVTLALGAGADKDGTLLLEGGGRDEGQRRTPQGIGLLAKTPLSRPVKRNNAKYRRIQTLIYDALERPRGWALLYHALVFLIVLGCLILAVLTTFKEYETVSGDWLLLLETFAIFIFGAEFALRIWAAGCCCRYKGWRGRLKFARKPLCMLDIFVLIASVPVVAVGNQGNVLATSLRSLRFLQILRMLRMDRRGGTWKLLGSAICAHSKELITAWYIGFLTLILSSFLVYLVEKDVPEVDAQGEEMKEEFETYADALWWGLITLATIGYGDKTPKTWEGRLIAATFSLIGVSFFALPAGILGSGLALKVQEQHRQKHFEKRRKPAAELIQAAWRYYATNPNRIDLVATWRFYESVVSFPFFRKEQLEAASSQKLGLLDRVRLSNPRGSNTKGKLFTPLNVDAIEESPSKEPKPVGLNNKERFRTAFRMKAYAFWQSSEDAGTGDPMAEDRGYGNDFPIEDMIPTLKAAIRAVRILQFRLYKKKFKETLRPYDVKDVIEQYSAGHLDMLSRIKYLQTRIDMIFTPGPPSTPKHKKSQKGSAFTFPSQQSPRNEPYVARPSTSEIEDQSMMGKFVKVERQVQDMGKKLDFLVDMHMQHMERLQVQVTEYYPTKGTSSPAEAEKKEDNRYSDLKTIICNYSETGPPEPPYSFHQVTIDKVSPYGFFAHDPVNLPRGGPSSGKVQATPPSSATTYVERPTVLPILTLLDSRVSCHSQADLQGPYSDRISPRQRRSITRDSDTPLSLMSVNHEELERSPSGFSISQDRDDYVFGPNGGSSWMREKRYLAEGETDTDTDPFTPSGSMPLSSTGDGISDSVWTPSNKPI

A word on the IC50: it is the concentration needed to halve the response being measured. A higher IC50 goes with a need for much substance. One may read the EC50 as the concentration giving half of the maximal effect. Consider `O=C(Cc1cc([N+](=O)[O-])ccc1Nc1c(Cl)cccc1Cl)OCCO` [Compound 15], for which the half-inhibitory concentration (IC50) in data set [1] was found to be 0.229 µM. Moreover, in data set [2] (10 µM), the “left-shift of Kv7.2/3 activation curve” value was −11 mV, the “V50 of Kv7.2/3 activation” value is −43.6±9.0 mV and the “fold increase in Kv7.2/3 current amplitude” value is listed as 3.2 fold. Further, the “activation kinetics t1/2 of Kv7.2/3” value in data set [2] (25 µM, at −20 mV) amounted to 0.171 ± 0.029 s. In data set [2] (25 µM, tail currents at −60 mV), the “deactivation time constant τdeact of Kv7.2/3” value came to 284 ± 43 ms. Moreover, in data set [2] (50 µM), the “left-shift of Kv7.2/3 activation curve” value is on record as −21 mV, the “V50 of Kv7.2/3 activation” value was −53.5±9.3 mV and the “fold increase in Kv7.2/3 current amplitude” value worked out at 9.1 fold. In data set [2] (200 µM), the “left-shift of Kv7.2/3 activation curve” value is listed as −31 mV and the “V50 of Kv7.2/3 activation” value was −63.1±2.0 mV. The “ΔV50 (mV), left-shift in half-activation potential” value in data set [2] (Kv7.2/3 in CHO cells) is −31.0 mV. In addition, in data set [2] (Kv7.2 and Kv7.3 coexpressed in CHO cells), the “M-channels (Kv7.2/Kv7.3) effect (opener / blocker / inactive)” value was “opener”. Besides, the EC50 in data set [2] (concentration-dependent left-shift ΔV50, sigmoidal fit, read-out: M-channel opener potency EC50) turned out to be 22 µM. Also, in the data set on rat DRG neurons, the “hyperpolarization of resting membrane potential, DRG neurons” value is given as −8.3±0.2 mV and the “resting membrane potential of DRG neurons after exposure” value was −69.0±0.3 mV. Moreover, the “rheobase current to generate a single spike, DRG neurons” value in the data set on rat DRG neurons (2 ms injection) stood at 577±38 pA. Also, in the data set with rat DRG neurons (depolarizing current for 400 ms), the “number of evoked action potentials, DRG neurons” value was 0.8±0.3.

For the origin of these results see PMC2131780, “A Tale of Switched Functions: From Cyclooxygenase Inhibition to M-Channel Modulation in New Diphenylamine Derivatives” (PLoS ONE, 2007).
